Source: patent US5212159A, “Anticataract composition” (Senju Pharmaceutical Co., Ltd., priority 1991, dated 1993)

System: Streptozotocin-induced Diabetic Cataract
Assay: Inhibitory effect on streptozotocin-induced diabetic cataract (slit-lamp cataract score, Sasaki scale)
Format: in vivo, male SD rats
Experimental: Streptozotocin (hereafter abbreviated as STZ), 70 mg/kg, was administered intravenously to 28 male SD rats aged 4 weeks to induce diabetes. Thereafter, the animals were divided into three groups (two groups consisting of 10 animals each and a group consisting of 8 animals). […] The lens was examined with a slit lamp under mydriasis with Mydrin-P before the beginning of drug administration and every seven days after initiation of administration. The degree of cataract was scored according to the rating scale of Sasaki et al. (Ophthalmic Res. 15: 185-190, 1983) and the anticataract activity of each drug was tested by time series analysis of variance. Body weights were taken on each observation day. […] Rating scale of Sasaki et al. 0: No abnormality. […] Vacuoles are present in the equator of the lens. […] Vacuoles spread toward the anterior pole beneath the cortex of the anterior lens capsule. […] Vacuole begin to merge. […] The deep layer of the cortex of the anterior lens capsule is cloudy. […] The central part of the lens is milk white in color. […] Virtually the entire lens is milk white in color (mature cataract).

[1] = compared with the control group, 100 mg/kg/day i.p. for 56 days
[2] = day 7 after the beginning of treatment, 100 mg/kg/day i.p.
[3] = day 14 after the beginning of treatment, 100 mg/kg/day i.p.
[4] = day 21 after the beginning of treatment, 100 mg/kg/day i.p.
[5] = day 28 after the beginning of treatment, 100 mg/kg/day i.p.
[6] = day 35 after the beginning of treatment, 100 mg/kg/day i.p.
[7] = day 42 after the beginning of treatment, 100 mg/kg/day i.p.
[8] = day 49 after the beginning of treatment, 100 mg/kg/day i.p.
[9] = day 56 after the beginning of treatment, 100 mg/kg/day i.p.

Question: What does the source list for `N[C@@H](CCC(=O)N[C@@H](CS)C(=O)NCC(=O)O)C(=O)O` [Glutathione, glutathione]?
Answer: Degree of progression of cataract, time series analysis of variance [1]: no significant difference from the control group; Time at which cataract scores were reached [1]: scores of 5 and 6 were reached later than in the control group; Number of eyes with cataract score 0 (day 0 after the beginning of treatment, 100 mg/kg/day i.p.): 16 eyes; Number of eyes with cataract score 0 [2]: 7 eyes; Number of eyes with cataract score 1 [2]: 9 eyes; Number of eyes with cataract score 0 [3]: 1 eyes; Number of eyes with cataract score 1 [3]: 13 eyes; Number of eyes with cataract score 2 [3]: 2 eyes; Number of eyes with cataract score 1 [4]: 3 eyes; Number of eyes with cataract score 2 [4]: 13 eyes; Number of eyes with cataract score 2 [5]: 9 eyes; Number of eyes with cataract score 3 [5]: 7 eyes; Number of eyes with cataract score 2 [6]: 3 eyes; Number of eyes with cataract score 3 [6]: 8 eyes; Number of eyes with cataract score 4 [6]: 3 eyes; Number of eyes with cataract score 3 [7]: 11 eyes; Number of eyes with cataract score 4 [7]: 3 eyes; Number of eyes with cataract score 3 [8]: 10 eyes; Number of eyes with cataract score 4 [8]: 3 eyes; Number of eyes with cataract score 5 [8]: 1 eyes; Number of eyes with cataract score 3 [9]: 4 eyes; Number of eyes with cataract score 4 [9]: 6 eyes; Number of eyes with cataract score 5 [9]: 3 eyes; Number of eyes with cataract score 6 [9]: 1 eyes
